Assay results reported in patent publication US20240148809A1, “CANNABIS PREVENTS NK IN[…] CANCER AND INCREASES NK FUNCTION” (The Regents of the University of California, priority 2020, published 2024).

What was measured:
[1] = test system: Oral Squamous Carcinoma Cells (OSCCs); test: Cell death assay in OSCCs (loss of forward scatter and propidium iodide staining, flow cytometry); type: cell-based, human; conditions: for % PI: Percent cell death induced in total population of tumor cells, as visualized by PI / % decrease in FS: Percent of cells that lost FS in total population of tumor cells: OSCC, overnight
Description: (§1) Oral Squamous Carcinoma Cells (OSCCs) and stem-like Oral Squamous Carcinoma Stem Cells (OSCSCs) were isolated from tumors of oral cancer patients at UCLA, and cultured in RPMI 1640 supplemented with 10% FBS (Gemini Bio-Products, CA, USA), 1.4% antibiotic antimycotic, 1% sodium pyruvate, 1.4% non-essential amino acids, 1% L-glutamine, 0.2% gentamicin (Gemini Bio-Products, CA, USA), and 0.15% sodium bicarbonate (Fisher Scientific, PA, USA).
(§2) OSCCs and OSCSCs were treated with different concentrations of Win55,2122-2 and cis-diamminedichloridoplatinum (II) (CDDP) as shown in FIGS. 1A-1B, FIG. 2 and Tables 1 and 2, and cultured overnight at 37 C in 5% CO2.
(§3) After an overnight incubation the cells were washed twice and stained with Propidium iodide at a concentration of […], as described by Jewett, A., et al., J Immunol, 1997. 159(10): p. 4815-22; Jewett, A. and B. Bonavida, J Clin Immunol, 1995. 15(1): p. 35-44; and Jewett, A. and B. Bonavida, J Immunol, 1996. 156(3): p. 907-15, each of which is incorporated herein by reference in its entirety.
(§4) Flow cytometric analysis was performed using Attune flow cytometer. Briefly, cells were analyzed based on Forward angle light scatter (FS) and Side scatter (SS), and the proportions of cells that had lost FS and became small were determined in total populations of tumor cells. Untreated and DMSO treated tumors were used as controls. In addition, the proportions of cells that were stained with PI were also determined.
OSCCs are differentiated oral squamous carcinoma cells; OSCCs were treated with different concentrations of Win55,2122-2, as indicated in FIGS. 1A-1B and Table 1.

[2] = test system: Oral Squamous Carcinoma Stem Cells (OSCSCs); test: Cell death assay in OSCSCs (loss of forward scatter and propidium iodide staining, flow cytometry); type: cell-based, human; conditions: for % PI: propidium iodide staining / % of decrease in FS: Percent of cells that lost FS in total population of tumor cells: overnight
Description: as §1, §2, §3, §4
OSCSCs are stem like oral squamous carcinoma cells; OSCSCs were treated with different concentrations of Win55,2122-2, as indicated in FIG. 2 and Table 2.

[3] = test system: CD3+ T cells (IFN-γ); test: IFN-γ ELISA of culture supernatants of CD3+ T cells from splenocytes of treated hu-BLT mice; type: in vivo; conditions: IP for 27 days, in words
Description: (§5) PBMCs (FIG. 11A and FIG. 11B) and CD3+ T cells (FIG. 11C) were isolated from hu-BLT mice after treatment of WIN 55,212-2 (intraperitoneal (IP) injection every 2 days at 2 mg/Kg in DMSO+saline for 27 days before sacrifice) or IL-15 (IP injection of 5 μg per mice for 27 days). PBMCs were isolated from peripheral blood and treated with IL-2 (1000 u/ml) overnight before they were used in 51 Cr release assay. The Lytic units (LU) 30/10^6 cells were determined by plotting the % cytotoxicity obtained at different effector to target ratios, and using that curve to determine the inverse number of NK cells required to lyse 30% of OSCSCs×100. The numbers of LU were then adjusted based on the % of NK cells obtained by flow cytometric analysis (FIG. 11A). PBMCs and CD3+ T cells culture supernatants were collected and IFN-γ secretions were determined using ELISA (FIG. 11B and FIG. 11C). CD3 T cells were isolated from splenocytes by negative selection of CD3+ T cells using an isolation kit (Stem cell technologies).

[4] = test system: NK cells in PBMCs (cytotoxicity against OSCSCs); test: 51Cr release assay with PBMCs of treated hu-BLT mice against OSCSCs; type: in vivo; conditions: IP for 27 days, PBMCs treated with IL-2 overnight, in words
Description: as §5

[5] = test system: PBMCs (IFN-γ); test: IFN-γ ELISA of PBMC culture supernatants of treated hu-BLT mice; type: in vivo; conditions: IP for 27 days, in words
Description: as §5

[6] = test system: PBMCs (IFN-γ); test: ELISPOT for IFN-γ spots in PBMCs of breast cancer patient P38/P77 treated with CBD; type: in vivo, human; conditions: in words
Description: FIG. 10A-FIG. 10B show results of an enzyme-linked immunospot (ELISPOT) assay that was conducted to determine the numbers of IFN-γ spots representing the number of cells expressing IFN-γ. Treated (IL2, IL2+antiCD16, IL2+antiCD3/28) and untreated PMBC cells of a breast cancer patient P38 (who was treated with CBD) compared to two healthy control subjects, H43 and H44 (FIG. 10A). Treated (IL2, IL2+antiCD16, IL2+antiCD3/28) and untreated PMBC cells of a breast cancer patient P77 VB (who was treated with CBD) compared to a healthy control subject, H74 (FIG. 10B).
80 μl of anti-human IFN-γ capture antibody was added to each well of a 96-well high-protein-binding PVDF filter plate and incubated overnight at 4° C. The plate was washed with […] of PBS once before adding samples into the plate. 50,000 cells in 200 μl of RPMI were added into each well and incubate at 37° C., 5% CO2 overnight. After incubation, the plate was washed twice with 200 μl PBS followed by 0.05% 200 μl Tween-PBS twice. […] of anti-human IFN-γ detection antibody was added into each well and incubated at room temperature for 2 hours and the plate was washed three times with 200 μI/well of 0.05% Tween-PBS. 80 μI/well of tertiary solution which was made from 1:1000 diluted Strep-AP was added in the plate and incubated for 30 minutes. […]

Molecule: N.N.[Cl][Pt][Cl] [CDDP, cis-diamminedichloridoplatinum (II)]
- % PI: Percent cell death induced in total population of tumor cells, as visualized by PI ([1]; 30 μg/ml): 23.8%
- % decrease in FS: Percent of cells that lost FS in total population of tumor cells ([1]; 30 μg/ml): 51%
- % PI: Percent cell death induced in total population of tumor cells, as visualized by PI ([1]; 50 μg/ml): 18.9%
- % decrease in FS: Percent of cells that lost FS in total population of tumor cells ([1]; 50 μg/ml): 53%

Molecule: CS(=O)(=O)O.Cc1c(C(=O)c2cccc3ccccc23)c2cccc3c2n1[C@H](CN1CCOCC1)CO3 [Win55,2122-2, (R)-(+)-[2,3-Dihydro-5-methyl-3-(4-morpholinylmethyl)pyrrolo[1,2,3-de]-1,4-benzoxazin-6-yl]-1-naphthalenylmethanone mesylate]
- % PI: Percent cell death induced in total population of tumor cells, as visualized by PI ([1]; 5 μM): 23.1%
- % decrease in FS: Percent of cells that lost FS in total population of tumor cells ([1]; 5 μM): 52%
- % PI: Percent cell death induced in total population of tumor cells, as visualized by PI ([1]; 25 μM): 32.9%
- % decrease in FS: Percent of cells that lost FS in total population of tumor cells ([1]; 25 μM): 75%
- % PI: Percent cell death induced in total population of tumor cells, as visualized by PI ([1]; 50 μM): 51.6%
- % decrease in FS: Percent of cells that lost FS in total population of tumor cells ([1]; 50 μM): 78%
- % PI: Percent cell death induced in total population of tumor cells, as visualized by PI ([1]; 100 μM): 51.6%
- % decrease in FS: Percent of cells that lost FS in total population of tumor cells ([1]; 100 μM): 77%
- induction of cell death in differentiated oral tumors ([1]; OSCCs, in words): potent inducer of cell death
- % PI: propidium iodide staining ([2]; 5 μM): 11.5%
- % of decrease in FS: Percent of cells that lost FS in total population of tumor cells ([2]; 5 μM): 15%
- % PI: propidium iodide staining ([2]; 25 μM): 26.3%
- % of decrease in FS: Percent of cells that lost FS in total population of tumor cells ([2]; 25 μM): 24%
- % PI: propidium iodide staining ([2]; 50 μM): 21.7%
- % of decrease in FS: Percent of cells that lost FS in total population of tumor cells ([2]; 50 μM): 16%
- cell death by staining with PI ([2]; compared to untreated or DMSO treated tumors, in words): no or moderate levels of cell death
- change of FS ([2]; even at the higher concentrations, in words): did not change FS
- IFN-γ secretion in CD3+ T cells [3]: higher
- NK cell mediated cytotoxicity in PBMC [4]: higher
- IFN-γ secretion in PBMC [5]: higher

Molecule: IL-15: IL-15, IP injection of 5 μg per mice for 27 days in hu-BLT mice
- IFN-γ secretion in CD3+ T cells [3]: higher
- NK cell mediated cytotoxicity in PBMC [4]: higher

Molecule: C=C(C)[C@@H]1CCC(C)=C[C@H]1c1c(O)cc(CCCCC)cc1O [CBD, Cannabidiol]
- PBMC expression of IFN-γ (ELISPOT) compared to healthy control [6]: Comparable
